Values of other authors, collected in US20220401579A1, “INCLUSION COMPLEXES OF PHARMACEUTICALS AND CYCLIC OLIGOMERS” (DISPERSOL TECHNOLOGIES, LLC, priority 2019, published 2022).
Read-outs that look alike come from different tables or passages of the source.

Experiments:
[1] = for solubility in water / aqueous media (descriptive): water or aqueous media
[2] = granulate released in the proximal small intestine

For `O=C(NC[C@H]1CN(c2ccc(N3CCOCC3=O)cc2)C(=O)O1)c1ccc(Cl)s1` [Rivaroxaban, 5-Chloro-N-({(5S)-2-oxo-3-[4-(3-oxo-4-morpholinyl)phenyl]-1,3-oxazolidin-5-yl}methyl)-2-thiophenecarboxamide], the absolute bioavailability (20 mg dose, fasted state) is listed as “approximately 66%”, the “decrease in AUC compared to tablet” value [2] is listed as 29% and the “decrease in Cmax compared to tablet” value [2] is listed as 56%. For the same molecule, the “solubility in organic solvents (descriptive)” value ([1]; organic solvents (e.g., acetone, polyethylene glycol 400)) was “only slightly soluble” and the “solubility in water / aqueous media (descriptive)” value [1] was “practically insoluble”.
For `CC(O)COC[C@H]1O[C@@H]2O[C@H]3[C@H](O)[C@@H](O)[C@@H](O[C@H]4[C@H](O)[C@@H](O)[C@@H](O[C@H]5[C@H](O)[C@@H](O)[C@@H](O[C@H]6[C@H](O)[C@@H](O)[C@@H](O[C@H]7[C@H](O)[C@@H](O)[C@@H](O[C@H]8[C@H](O)[C@@H](O)[C@@H](O[C@H]1[C@H](O)[C@H]2O)O[C@@H]8COCC(C)O)O[C@@H]7COCC(C)O)O[C@@H]6COCC(C)O)O[C@@H]5COCC(C)O)O[C@@H]4COCC(C)O)O[C@@H]3COCC(C)O` (stereo partly drawn) [HPBCD, hydroxy propyl β cyclodextrin], the water solubility ([1]; water) is given as over 600 mg/mL.
In the case of `COC(=O)c1ccc2c(c1)NC(=O)/C2=C(\Nc1ccc(N(C)C(=O)CN2CCN(C)CC2)cc1)c1ccccc1` [Nintedanib esylate, 1H-Indole-6-carboxylic acid, 2,3 dihydro-3-[[[4-[methyl[(4-methyl-1-piperazinyl)acetyl]amino]phenyl]amino]phenylmethylene]-2-oxo-,methyl ester, (3Z)-, ethanesulfonate (1:1)], the “intrinsic pH of saturated solution in water” value ([1]; saturated solution in water) is listed as 5.7, the “concentration of a saturated solution in water” value ([1]; water) is listed as 2800 µg/mL and the “solubility in water / aqueous media (descriptive)” value [1] is listed as “soluble”.
In the case of `COC(=O)c1ccc2c(c1)NC(=O)/C2=C(\Nc1ccc(N(C)C(=O)CN2CCN(C)CC2)cc1)c1ccccc1` [Nintedanib, 1H-Indole-6-carboxylic acid, 2,3 dihydro-3-[[[4-[methyl[(4-methyl-1-piperazinyl)acetyl]amino]phenyl]amino]phenylmethylene]-2-oxo-,methyl ester], the “median Tmax” value (fasted) is given as 2.00 h, the “median Tmax” value (fed) is given as 3.98 h and the “increase in exposure after food intake compared to fasted conditions” value (fed versus fasted) is given as “approximately 20%”.
For `CNC(=O)c1cc(Oc2ccc(NC(=O)Nc3ccc(Cl)c(C(F)(F)F)c3)cc2)ccn1` [Sorafenib, 4-[4-({[4-chloro-3-(trifluoromethyl)phenyl]carbamoyl}amino)phenoxy]-N-methylpyridine-2-carboxamide], the “solubility in PEG 400 (descriptive)” value ([1]; PEG 400) is given as “soluble”, the “solubility in ethanol (descriptive)” value ([1]; ethanol) is given as “slightly soluble” and the “solubility in water / aqueous media (descriptive)” value [1] is given as “practically insoluble”.
In the case of `CCC(C)n1ncn(-c2ccc(N3CCN(c4ccc(OCC5COC(Cn6cncn6)(c6ccc(Cl)cc6Cl)O5)cc4)CC3)cc2)c1=O` (stereo not shown) [Itraconazole, 2-butan-2-yl-4-[4-[4-[4-[[2-(2,4-dichlorophenyl)-2-(1,2,4-triazol-1-ylmethyl)-1,3-dioxolan-4-yl]methoxy]phenyl]-1-piperazinyl]phenyl]-1,2,4-triazol-3-one], the “solubility in alcohols (descriptive)” value ([1]; alcohols) is given as “very slightly soluble”, the “solubility in dichloromethane (descriptive)” value ([1]; dichloromethane) is given as “freely soluble” and the “log (n-octanol/water) partition coefficient” value ([1]; pH 8.1) is given as 5.66. The “solubility in water / aqueous media (descriptive)” value [1] was “insoluble”.
